Data: patent publication US8987486B2, “Trans-2-decenoic acid derivative and pharmaceutical agent containing the same” (Nagoya Industrial Science Research Institute, priority 2010, dated 2015)

Tests used:
Type in all cases: in vivo
[1] = tested on: paclitaxel-induced peripheral nerve disorder rats; test: von Frey test in paclitaxel-induced peripheral nerve disorder rats; details: Rattus norvegicus, ip; single intraperitoneal dose of 300 μ/kg; higher of the thresholds after 1 hour and 5 hours; normal threshold 15; read-out: Recovery rate of 50% reaction threshold value (%)
Protocol: The effect of the compound of the present invention was tested for a peripheral nerve disorder which is a side effect induced by the administration of paclitaxel (an anti-cancer agent) such as hyperesthesia including allodynia (severe pain induced by such tactile stimuli which usually cause no pain). The compound of the present invention was intraperitoneally administered to rats as a test drug to conduct a von Frey test.
Male SD rats of six weeks age (one group comprising six rats) were used as experimental animals and paclitaxel (2 mg/kg) was intraperitoneally administered every other day for four times in total to prepare paclitaxel-induced peripheral nerve disorder rats. During 18 and 25 days or during 20 to 27 days after initiation of paclitaxel administration, the test drug was intraperitoneally administered in a single dose of […] and the following von Frey test was conducted.
The rats of the above (1) were placed in a transparent acrylic cage with a wire-meshed floor and habituated for about three minutes and the 50% reaction threshold values to the mechanical stimulus of right hind limb were measured before administration of the test drug and after 1, 5 and 24 hours from initiation of the administration.
The measurement was conducted using von Frey filaments (manufactured by North Coast Medical Inc.) in accordance with the methods of Chaplan, et al. (Journal of Neuroscience Methods, vol. 53, no. 1, pages 55 to 63, 1994) and Dixon, et al. (Annual Review of Pharmacology and Toxicology, vol. 20, pages 441 to 462, 1980). […] The case where the rat escaped at the instance of removing the filament was also called positive. When the positive reaction was noted, stimulus was conducted similarly using a filament of one rank weaker while, when no reaction was noted, stimulus was conducted similarly using a filament of one rank stronger and the point when the reaction changed from negative to positive or from positive to negative was called the first two reactions. After that, stimulus was conducted for continuous four times by the same up-down method. A 50% reaction threshold value to the mechanical stimulus was measured using the reaction to the six stimuli in total and then (mean value)±(standard error) for each group was calculated. Incidentally, when stimulus reached by that of 15.0 g without positive reaction or, when positive reaction continued to 0.4 g, then 15.0 g or 0.25 g was adopted as each threshold value, respectively. With regard to the higher 50% reaction threshold value between the 50% threshold values after 1 hour and 5 hours from administration of a test drug, a recovery rate (%) of the 50% reaction threshold value was calculated by the following expression in which 15 was adopted as the normal threshold value. Recovery rate (%) of 50% reaction threshold value=[(50% reaction threshold value after 1 hour or 5 hours from administration of test drug)−(50% reaction threshold value before administration of test drug)]/[(Normal threshold value)−(50% reaction threshold value before administration of test drug)]

[2] = tested on: chronic mild stress-induced depressive model mice; test: Elevated plus maze test in chronic mild stress-induced depressive model mice; details: 1,500 μg/kg orally once daily for three weeks; control 25.37±4.13 seconds
Protocol: The same operation as in the above Test Example 7 was conducted to prepare chronic mild stress-induced depressive model mice (n=8 to 12). During that time, the compound of the present invention dissolved in PBS or in a PBS solvent containing DMSO, etc. was orally administered once daily for three weeks and, after that, the suppressive effect for anxiety symptom was evaluated by means of an elevated plus maze test. Thus, time when the mouse stayed in an open arm of the elevated plus maze and the frequency (motility amount) of coming in and out of the mouse for both open arm and closed arm were measured. When the anxiety symptom was stronger, the staying time in the open arm was shorter. At that time, it is confirmed that there is no difference in the frequencies for coming in and out the arm between the cases where the stress is and is not loaded. Incidentally, the test for significance was carried out by a one-way ANOVA, Tukey's Multiple Comparison Test.

[3] = tested on: chronic mild stress-induced depression model mice; test: Tail suspension test in chronic mild stress-induced depression model mice; details: control 103.18±15.96 seconds
Protocol: Female ddY strain mice of seven weeks age (n=8 to 12) were (A) subjected to forced swimming for 15 minutes and then to normal breeding for two clays, (B) subjected to breeding in an inclined cage for two days and then to normal breeding for one day, (C) subjected to breeding for one day where the floor mat was made wet and then to normal breeding for one day and (D) subjected to breeding for one day using a cage which was rotated at the rate of 180 rotations/minute and then to normal breeding for one clay. Further, (B) to (D) were repeated for two times and stress was loaded for three weeks in total to prepare chronic mild stress-induced depression model mice. During that time, the compound of the present invention dissolved in PBS or in a PBS solvent containing DMSO, etc. was orally administered once daily for three weeks and, after that, the suppressive effect for depressive symptom was evaluated by means of a tail suspension test. Thus, the area which was 1 cm from the tip of the tail of a mouse was grasped with hand and kept at the height of 10 cm from the floor, an observation was conducted for six minutes and the length of immobility time which is an index for the depressive symptom was measured. Incidentally, the test of significance was carried out by a one-way ANOVA, Tukey's Multiple Comparison Test.

[4] = tested on: disablement model rats with hemi-transection of spinal cord; test: Improvement in motor function (BBB scale) in rats with hemi-transection of spinal cord
Protocol: Female Wistar rats of seven weeks age (body weight: 120 to 140 g) were anesthetized with pentobarbital (40 mg/kg), thoracic vertebrae were detached to expose the thoracic cord and the left half thereof was cut at the position of the tenth thoracic cord using a sharp razor. After that, the muscle and the skin were satured to prepare disablement model rats with hemi-transection of spinal cord.
The compound of the present invention was dissolved in PBS or in a PBS solvent containing DMSO, etc. and orally administered once daily for 21 to 31 days.
With regard to the group administered with the compound of the present invention (n=3 to 6) and the control group (n=3 to 6), the improvement in motor function of the disablement model rats with hemi-transection of spinal cord was evaluated by a BBB scale (Basso D M, et al., J. Neurotrauma 12:1-21 (1995). Thus, evaluation of motor function was conducted for hind limbs of rats in such respects that whether the joint moves, whether body weight is applied onto the foot, whether walking is done, etc. wherein the movement of the hind limbs was divided into 21 points from no motility to normal state. Incidentally, the test for significance was conducted by a two-way ANOVA, Bonferroni Post test.

[5] = tested on: male mice injected with corticosterone; test: Tail suspension test in mice administered corticosterone; details: after two weeks, control 141.15 seconds
Protocol: Corticosterone suspended in oil was hypodermically injected to male mice of seven weeks age (n=3 to 5) in a dose of […] every day for three weeks. At the same time, the compound of the present invention dissolved in PBS or in a PBS solvent containing DMSO, etc. was orally administered every day for three weeks. After one, two and three week(s), the suppressive effect for depressive symptom was evaluated by a tail suspension test in the same manner as in the above Test Example 7. Incidentally, the test for significance was conducted by a Student's t-test.

CCCCCCC/C=C/C(=O)OCCN(C)C [Compound 1, (E)-2-(dimethylamino)ethyl dec-2-enoate]
inhibition in vivo at 0.3 mg/kg [1]: 48.3%

CCCCCCC/C=C/C(=O)SCCN(C)C [Compound 55, (E)-S-2-(dimethylamino)ethyl dec-2-enethioate]
staying time in an open arm (elevated plus maze) [2]: 47.24 ± 7.52 s | immobility time (tail suspension test) ([3]; 1,500 μg/kg orally once daily for three weeks): 63.72 ± 10.13 s | inhibition in vivo at 0.3 mg/kg [1]: 45.4% | BBB score ([4]; 500 μg/kg orally once daily, after fourteen days, control 8.5): 12.3 | BBB score ([4]; 500 μg/kg orally once daily, after seven days, control 1.8): 5.3 | immobility time (tail suspension test) ([5]; 1,500 μg/kg orally every day): 86.71 s

CCCCCCC/C=C/C(=O)OCCN(CC)CC [Compound 6, (E)-2-(diethylamino)ethyl dec-2-enoate]
staying time in an open arm (elevated plus maze) [2]: 53.57 ± 7.00 s | immobility time (tail suspension test) ([3]; 1,500 orally once daily for three weeks): 80.67 ± 23.94 s | BBB score ([4]; 100 μg/kg orally once daily, after nine days, control 3.5): 8.3 | immobility time (tail suspension test) ([5]; 300 μg/kg orally every day): 60.37 s

CCCCCCC/C=C/C(=O)NCCN(C)C [Compound 36, (E)-N-2-(dimethylamino)ethyl dec-2-enamide]
inhibition in vivo at 0.3 mg/kg [1]: 72.1% | BBB score ([4]; 500 μg/kg orally once daily, after fifteen days, control 9.8): 12.3 | immobility time (tail suspension test) ([5]; 300 μg/kg orally every day): 41.63 s

CCCCCCC/C=C/C(=O)NCCN(CC)CC [Compound 37, (E)-N-2-(diethylamino)ethyl dec-2-enamide]
inhibition in vivo at 0.3 mg/kg [1]: 73.1%
